This note sets out measurements from ChEMBL document CHEMBL3808387, “Discovery of IWP-051, a Novel Orally Bioavailable sGC Stimulator with Once-Daily Dosing Potential in Humans” (ACS Med Chem Lett, 2016).

Data set [1] is described as follows: Intrinsic clearance in Sprague-Dawley rat liver microsomes assessed per mg of protein at 2 uM after 10 to 30 mins by LC/MS/MS analysis in presence of NADPH. Type of data set: ADME. The conditions noted are these: read-out: CLH. (Microsomes from liver hold many membrane-bound enzymes, among them those of drug oxidation.)
Data set [2] in a line: Intrinsic clearance in human liver microsomes assessed per mg of protein at 2 uM after 10 to 30 mins by LC/MS/MS analysis in presence of NADPH. Type of data set: ADME. The conditions noted are these: read-out: CLH.
For data set [3], the target named is Soluble guanylate cyclase (Homo sapiens, UniProt O75343+P33402+Q02108+Q02153). As to the kind of experiment: Activation of SGC in HEK293 cells assessed as cGMP production after 20 mins by LC-MS/MS analysis in presence of NO-donor DETA-NONOate. Type of data set: cell-based.
Chain of Soluble guanylate cyclase (Q02153 whole entry): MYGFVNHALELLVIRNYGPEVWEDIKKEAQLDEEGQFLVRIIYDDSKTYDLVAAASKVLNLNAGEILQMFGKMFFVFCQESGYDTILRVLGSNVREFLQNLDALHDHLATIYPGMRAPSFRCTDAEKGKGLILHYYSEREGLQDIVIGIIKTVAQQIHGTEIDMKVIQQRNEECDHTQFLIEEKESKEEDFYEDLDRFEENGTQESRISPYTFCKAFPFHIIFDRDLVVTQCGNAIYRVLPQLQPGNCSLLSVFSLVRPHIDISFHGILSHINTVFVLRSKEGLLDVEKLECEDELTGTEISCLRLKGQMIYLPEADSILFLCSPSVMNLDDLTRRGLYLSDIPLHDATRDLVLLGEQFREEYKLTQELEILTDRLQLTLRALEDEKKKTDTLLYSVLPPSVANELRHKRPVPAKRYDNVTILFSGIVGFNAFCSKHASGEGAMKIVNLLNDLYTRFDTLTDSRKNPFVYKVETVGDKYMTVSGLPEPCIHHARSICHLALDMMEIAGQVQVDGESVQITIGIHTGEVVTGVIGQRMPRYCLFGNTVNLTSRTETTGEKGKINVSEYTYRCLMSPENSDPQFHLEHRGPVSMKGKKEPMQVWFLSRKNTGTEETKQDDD
Chain of Soluble guanylate cyclase (O75343 whole entry): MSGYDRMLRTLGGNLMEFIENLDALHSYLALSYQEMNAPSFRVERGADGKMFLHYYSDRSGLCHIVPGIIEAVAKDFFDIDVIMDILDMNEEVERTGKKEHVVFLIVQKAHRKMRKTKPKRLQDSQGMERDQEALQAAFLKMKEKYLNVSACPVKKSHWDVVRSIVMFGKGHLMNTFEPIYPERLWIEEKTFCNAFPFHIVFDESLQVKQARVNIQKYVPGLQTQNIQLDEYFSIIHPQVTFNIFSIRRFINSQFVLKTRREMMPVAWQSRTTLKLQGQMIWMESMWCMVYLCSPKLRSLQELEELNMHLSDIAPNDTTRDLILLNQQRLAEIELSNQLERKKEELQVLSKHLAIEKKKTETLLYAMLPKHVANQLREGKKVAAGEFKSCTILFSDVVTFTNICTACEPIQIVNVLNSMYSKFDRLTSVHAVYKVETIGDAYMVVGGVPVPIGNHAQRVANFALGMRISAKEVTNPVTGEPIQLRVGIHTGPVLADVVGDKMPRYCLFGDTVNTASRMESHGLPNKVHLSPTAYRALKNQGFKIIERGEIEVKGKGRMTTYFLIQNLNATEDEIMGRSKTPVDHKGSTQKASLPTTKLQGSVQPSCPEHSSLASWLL
Chain of Soluble guanylate cyclase (P33402 whole entry): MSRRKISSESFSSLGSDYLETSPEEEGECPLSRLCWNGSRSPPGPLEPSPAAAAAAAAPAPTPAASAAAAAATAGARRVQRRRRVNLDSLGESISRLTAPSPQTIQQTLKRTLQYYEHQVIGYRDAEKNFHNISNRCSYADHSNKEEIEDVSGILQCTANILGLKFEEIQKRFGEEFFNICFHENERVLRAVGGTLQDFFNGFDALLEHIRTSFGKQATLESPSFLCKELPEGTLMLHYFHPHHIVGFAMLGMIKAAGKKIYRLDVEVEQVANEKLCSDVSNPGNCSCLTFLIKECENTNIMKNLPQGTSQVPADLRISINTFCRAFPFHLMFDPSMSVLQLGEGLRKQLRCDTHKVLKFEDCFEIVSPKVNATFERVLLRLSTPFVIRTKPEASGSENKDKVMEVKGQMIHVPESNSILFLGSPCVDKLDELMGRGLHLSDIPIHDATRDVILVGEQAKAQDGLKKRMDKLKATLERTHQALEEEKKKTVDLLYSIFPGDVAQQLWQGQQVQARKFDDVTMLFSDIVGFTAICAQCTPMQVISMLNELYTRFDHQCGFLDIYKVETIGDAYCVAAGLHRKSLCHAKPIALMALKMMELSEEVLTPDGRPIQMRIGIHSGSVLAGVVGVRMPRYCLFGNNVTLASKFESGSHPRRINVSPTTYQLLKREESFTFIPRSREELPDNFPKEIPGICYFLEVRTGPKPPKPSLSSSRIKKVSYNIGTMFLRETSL
Chain of Soluble guanylate cyclase (Q02108 whole entry): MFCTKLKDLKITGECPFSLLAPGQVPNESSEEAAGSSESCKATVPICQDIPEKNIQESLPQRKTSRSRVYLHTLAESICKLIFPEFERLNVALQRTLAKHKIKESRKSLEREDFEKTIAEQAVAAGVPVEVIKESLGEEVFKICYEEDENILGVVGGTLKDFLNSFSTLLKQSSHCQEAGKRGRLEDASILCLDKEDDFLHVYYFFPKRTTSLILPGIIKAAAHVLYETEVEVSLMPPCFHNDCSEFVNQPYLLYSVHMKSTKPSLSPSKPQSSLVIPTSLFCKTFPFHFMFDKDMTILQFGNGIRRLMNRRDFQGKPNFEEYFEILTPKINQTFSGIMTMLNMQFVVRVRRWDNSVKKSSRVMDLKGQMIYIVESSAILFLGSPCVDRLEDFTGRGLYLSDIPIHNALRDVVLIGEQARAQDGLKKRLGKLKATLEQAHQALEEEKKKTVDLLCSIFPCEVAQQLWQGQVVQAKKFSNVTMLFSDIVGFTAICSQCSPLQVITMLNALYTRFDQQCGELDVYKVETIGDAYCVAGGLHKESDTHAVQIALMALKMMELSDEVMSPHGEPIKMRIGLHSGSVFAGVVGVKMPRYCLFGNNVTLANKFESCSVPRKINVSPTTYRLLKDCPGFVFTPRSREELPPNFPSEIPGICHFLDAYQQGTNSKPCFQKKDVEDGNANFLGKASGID
The target of data set [4] is Soluble guanylate cyclase (Homo sapiens) (UniProt Q02153+O75343+P33402+Q02108). As to the kind of experiment: Activation of SGC in HEK293 cells assessed as cGMP production at 30 uM after 20 mins by LC-MS/MS analysis in presence of NO-donor DETA-NONOate. Type of data set: cell-based.

The structures appear in SMILES notation.

In the case of `N#Cc1cc(-c2ncc(F)c(=O)[nH]2)nn1Cc1ccccc1F`, the microsomal CLint at 2 µM amounted to 9 µL/min/mg in data set [1] and 7 µL/min/mg in data set [2].
Turning to `O=c1[nH]c(-c2cc(-c3ccon3)n(Cc3ccc(F)cc3F)n2)ncc1F`, the microsomal CLint at 2 µM in data set [1] and in data set [2] was 4 µL/min/mg each time. Also, the EC50 (usually the concentration at which the effect is half-maximal) in data set [3] is 530 nM.
In the case of `Oc1nc(-c2cc(-c3ccon3)n(Cc3cccc(F)c3F)n2)ncc1F`, the figures for the microsomal CLint at 2 µM in data set [1] and in data set [2] were 3 µL/min/mg and 7 µL/min/mg, respectively. The EC50 in data set [3] was 370 nM.
On the same counts, the results for `O=c1[nH]c(-c2cc(-c3ccon3)n(CCC(F)(F)C(F)(F)F)n2)ncc1F` are 4 µL/min/mg, 6 µL/min/mg and 1500 nM.
On the same counts, the results for `O=S(=O)(c1ccccc1)c1cnc(-c2cc(-c3ccon3)n(Cc3ccccc3F)n2)nc1O` are 27 µL/min/mg, 18 µL/min/mg and 350 nM.
On to `Oc1nc(-c2cc(-c3ccon3)n(Cc3ccccc3F)n2)ncc1Cl`, for which the microsomal CLint at 2 µM was 5 µL/min/mg in data set [1] and 7 µL/min/mg in data set [2]. Moreover, the EC50 in data set [3] came out at 590 nM.
As for `Oc1nc(-c2cc(-c3ccccn3)n(Cc3ccccc3F)n2)ncc1F`, the figures for the microsomal CLint at 2 µM in data set [1] and in data set [2] were 39 µL/min/mg and 9 µL/min/mg, respectively. Also, the maximum response (Emax) – broadly, the maximal effect, on the per cent scale that the assay sets – in data set [4] worked out at 35%.
With `Oc1nc(-c2cc(C3CC3)n(Cc3ccccc3F)n2)ncc1F`, the microsomal CLint at 2 µM in data set [1] came out at 10 µL/min/mg. The Emax in data set [4] was determined as 26%.
Regarding `CN(c1ccccc1)S(=O)(=O)c1cnc(-c2cc(-c3ccon3)n(Cc3ccccc3F)n2)nc1O`, the microsomal CLint at 2 µM in data set [1] was determined as 58 µL/min/mg; in data set [2], 179 µL/min/mg. For the same compound, in data set [3], the EC50 was 730 nM.
On the same counts, the results for `Oc1nc(-c2cc(-c3ccon3)n(Cc3sccc3F)n2)ncc1F` are 13 µL/min/mg, 11 µL/min/mg and 280 nM.
As to `Oc1nc(-c2cc(-c3ccon3)n(Cc3ccccc3F)n2)ncc1C(F)(F)F`, the microsomal CLint at 2 µM in data set [1] was 20 µL/min/mg; in data set [2], 19 µL/min/mg. Also, the Emax in data set [4] came out at 54%.
On the same counts, the results for `O=C(Nc1cnc(-c2cc(-c3ccon3)n(Cc3ccccc3F)n2)nc1O)c1ccccc1` are 26 µL/min/mg, 14 µL/min/mg and 53%.
On the same counts, the results for `Oc1ccnc(-c2cc(-c3ccon3)n(Cc3ccccc3F)n2)n1` are 15 µL/min/mg, 12 µL/min/mg and 92%.
For the compound `Oc1nc(-c2cc(-c3ncco3)n(Cc3ccccc3F)n2)ncc1F`, the microsomal CLint at 2 µM in data set [1] turned out to be 68 µL/min/mg; in data set [2], 42 µL/min/mg. Also, the EC50 in data set [3] amounted to 1500 nM.
Consider `Oc1nc(-c2cc(-c3ncon3)n(Cc3ccccc3F)n2)ncc1F`, for which, in data set [1], the microsomal CLint at 2 µM was 4 µL/min/mg. Besides, the Emax in data set [4] came out at 68%.
For `CS(=O)(=O)c1cnc(-c2cc(-c3ccon3)n(Cc3ccccc3F)n2)nc1O`, the microsomal CLint at 2 µM in data set [1] stood at 13 µL/min/mg; in data set [2] it was 15 µL/min/mg. Also, the EC50 in data set [3] was 900 nM.
On the same counts, the results for `O=S(=O)(c1ccc(Cl)cc1)c1cnc(-c2cc(-c3ccon3)n(Cc3ccccc3F)n2)nc1O` are 15 µL/min/mg, 6 µL/min/mg and 160 nM.
Regarding `CN(C)S(=O)(=O)c1cnc(-c2cc(-c3ccon3)n(Cc3ccccc3F)n2)nc1O`, the microsomal CLint at 2 µM in data set [1] turned out to be 24 µL/min/mg; in data set [2] it was 8 µL/min/mg. Also, the Emax in data set [4] turned out to be 87%.
Turning to `Oc1nc(-c2cc(-c3ccon3)n(Cc3ccccc3)n2)ncc1F`, the microsomal CLint at 2 µM stood at 10 µL/min/mg in data set [1] and 11 µL/min/mg in data set [2]. Further, in data set [3], the EC50 came out at 880 nM.
On the same counts, the results for `O=c1[nH]c(-c2cc(-c3ccsn3)n(Cc3ccccc3F)n2)ncc1F` are 129 µL/min/mg, 169 µL/min/mg and 180 nM.
On to `CC(C)(O)c1cnc(-c2cc(-c3ccon3)n(Cc3ccccc3F)n2)nc1O`, for which the microsomal CLint at 2 µM in data set [1] and in data set [2] was 8 µL/min/mg in each case. In addition, the Emax in data set [4] was 40%.
For the compound `Oc1nc(-c2cc(-c3ccon3)n(CCC(F)(F)F)n2)ncc1F`, the microsomal CLint at 2 µM in data set [1] turned out to be 32 µL/min/mg; in data set [2], 23 µL/min/mg.
For `Cc1nc(-c2cc(-c3ccon3)n(Cc3ccccc3F)n2)nc(O)c1F`, the values for the microsomal CLint at 2 µM in data set [1] and in data set [2] were 16 µL/min/mg and 9 µL/min/mg, respectively. Moreover, the Emax in data set [4] stood at 70%.
On the same counts, the results for `Oc1nc(-c2cc(-c3cocn3)n(Cc3ccccc3F)n2)ncc1F` are 9 µL/min/mg, 4 µL/min/mg and 78%.
For the compound `Cc1cccc(Cn2nc(-c3ncc(F)c(O)n3)cc2-c2ccon2)c1F`, the microsomal CLint at 2 µM in data set [1] came out at 79 µL/min/mg; in data set [2], 8 µL/min/mg. In addition, the EC50 in data set [3] came out at 240 nM.
Turning to `N#Cc1cnc(-c2cc(-c3ccon3)n(Cc3ccccc3F)n2)nc1O`, the microsomal CLint at 2 µM in data set [1] is 14 µL/min/mg; in data set [2], 8 µL/min/mg. Also, the concentration for a half-maximal effect (EC50) in data set [3] was determined as 500 nM.
Regarding `Oc1nc(-c2cc(-c3ccon3)n(Cc3ncccc3F)n2)ncc1F`, the microsomal CLint at 2 µM in data set [1] was 7 µL/min/mg; in data set [2], 15 µL/min/mg. Besides, the Emax in data set [4] came to 44%.
Consider `O=c1[nH]c(-c2cc(-c3ccon3)n(Cc3cccc(Cl)c3F)n2)ncc1F`, for which the microsomal CLint at 2 µM in data set [1] came to 2 µL/min/mg; in data set [2] it was 5 µL/min/mg. Besides, in data set [3], the 50% effective concentration (EC50) was determined as 380 nM.
Take `Cc1cc(-c2cc(-c3ncc(F)c(O)n3)nn2Cc2ccccc2F)no1`: the microsomal CLint at 2 µM in data set [1] was found to be 249 µL/min/mg; in data set [2], 118 µL/min/mg. In addition, in data set [4], the Emax is 23%.
With `N#Cc1cc(-c2ncc(F)c(O)n2)nn1Cc1ccccc1F`, the Emax in data set [4] was determined as 73%.
As for `COc1nc(-c2cc(-c3ccon3)n(Cc3ccccc3F)n2)ncc1F`, the microsomal CLint at 2 µM in data set [2] came out at 20 µL/min/mg.
